# Assay results: ChEMBL document CHEMBL4364276, “Discovery of 4-phenyl-2H-benzo[b][1,4]oxazin-3(4H)-one derivatives as potent and orally active PI3K/mTOR dual inhibitors” (Eur J Med Chem, 2019)
# How the values were obtained:
# [1] = target: Focal adhesion kinase 1 (Homo sapiens) (UniProt Q05397); assay: Inhibition of human FAK at 100 nM using poly[Glu:Tyr] (4:1) as substrate by [gamma-33P]-ATP assay
# [2] = target: Mitogen-activated protein kinase 13 (Homo sapiens) (UniProt O15264); assay: Inhibition of human p38delta at 100 nM using MBP as substrate by [gamma-33P]-ATP assay
# [3] = target: Mitogen-activated protein kinase kinase kinase 10 (Homo sapiens) (UniProt Q02779); assay: Inhibition of human MLK2 at 100 nM using MBP as substrate by [gamma-33P]-ATP assay
# [4] = target: Serine/threonine-protein kinase LATS1 (Homo sapiens) (UniProt O95835); assay: Inhibition of human LATS1 at 100 nM using KKRNRRLSVA as substrate by [gamma-33P]-ATP assay
# [5] = target: Mitogen-activated protein kinase kinase kinase 5 (Homo sapiens) (UniProt Q99683); assay: Inhibition of human ASK1 at 100 nM using MBP as substrate by [gamma-33P]-ATP assay
# [6] = target: Serine/threonine-protein kinase pim-2 (Homo sapiens) (UniProt Q9P1W9); assay: Inhibition of human PIM2 at 100 nM using RSRHSSYPAGT as substrate by [gamma-33P]-ATP assay
# [7] = target: Serine/threonine-protein kinase Nek9 (Homo sapiens) (UniProt Q8TD19); assay: Inhibition of human NEK9 at 100 nM using casein as substrate by [gamma-33P]-ATP assay
# [8] = target: Membrane-associated tyrosine- and threonine-specific cdc2-inhibitory kinase (Homo sapiens) (UniProt Q99640); assay: Inhibition of human PKMYT1 at 100 nM using MBP as substrate by [gamma-33P]-ATP assay
# Homo sapiens = organism: Homo sapiens; assay: Inhibition of human AMPK (A1/B1/G2) at 100 nM using HMRSAMSGLHLVKRR as substrate by [gamma-33P]-ATP assay
# [9] = AUC (0 to infinity) in Sprague-Dawley rat at 10 mg/kg, po measured upto 24 hrs by LC-MS/MS analysis; format: ADME, organism-based; design: dose 10 mg/kg, time infinity, route oral; settings: in vivo
# [10] = target: Dual specificity mitogen-activated protein kinase kinase 2 (Homo sapiens) (UniProt P36507); assay: Inhibition of human MEK2 at 100 nM using ERK2 as substrate by [gamma-33P]-ATP assay
# [11] = target: Serine/threonine-protein kinase ULK3 (Homo sapiens) (UniProt Q6PHR2); assay: Inhibition of human ULK3 at 100 nM using MBP as substrate by [gamma-33P]-ATP assay
# [12] = target: PI3-kinase p110-delta/p85-alpha (Homo sapiens, UniProt O00329); assay: Inhibition of recombinant human full length N-terminal GST-tagged PI3Kdelta (1 to 1044 residues)/PIK3R1 (1 to 724 residues) expressed in baculovirus expression system using PIP2 as substrate incubated for 2 hrs by ADP-Glo assay
# [13] = target: Ephrin type-B receptor 2 (Homo sapiens) (UniProt P29323); assay: Inhibition of human EPHB2 at 100 nM using poly[Glu:Tyr] (4:1) as substrate by [gamma-33P]-ATP assay
# [14] = target: MAP kinase-interacting serine/threonine-protein kinase 2 (Homo sapiens) (UniProt Q9HBH9); assay: Inhibition of human MNK2 at 100 nM using MBP as substrate by [gamma-33P]-ATP assay
# [15] = target: Tyrosine-protein kinase JAK3 (Homo sapiens) (UniProt P52333); assay: Inhibition of human JAK3 at 100 nM using poly[Glu:Tyr] (4:1) as substrate by [gamma-33P]-ATP assay
# [16] = target: Serine/threonine-protein kinase 3 (Homo sapiens) (UniProt Q13188); assay: Inhibition of human MST2 at 100 nM using MBP as substrate by [gamma-33P]-ATP assay
# [17] = target: cGMP-dependent protein kinase 1 (Homo sapiens) (UniProt Q13976); assay: Inhibition of human PKG1beta at 100 nM using LRRASLG as substrate by [gamma-33P]-ATP assay
# [18] = target: Serine/threonine-protein kinase Nek1 (Homo sapiens) (UniProt Q96PY6); assay: Inhibition of human NEK1 at 100 nM using MBP as substrate by [gamma-33P]-ATP assay
# [19] = target: Testis-specific serine/threonine-protein kinase 3 (Homo sapiens) (UniProt Q96PN8); assay: Inhibition of human TSSK3 at 100 nM using KKKVSRSGLYRSPSMPENLNRPR as substrate by [gamma-33P]-ATP assay
# [20] = target: Cyclin-dependent kinase 5/CDK5 activator 1 (Homo sapiens) (UniProt Q00535+Q15078); assay: Inhibition of human CDK5/p25 at 100 nM using histone H1 as substrate by [gamma-33P]-ATP assay; format: protein-complex assay
# [21] = target: Mitogen-activated protein kinase kinase kinase 6 (Homo sapiens) (UniProt O95382); assay: Inhibition of human MEKK6 at 100 nM using MBP as substrate by [gamma-33P]-ATP assay
# [22] = target: Serine/threonine-protein kinase pim-1 (Homo sapiens) (UniProt P11309); assay: Inhibition of human PIM1 at 100 nM using KKRNRTLTK as substrate by [gamma-33P]-ATP assay
# [23] = target: Calcium/calmodulin-dependent protein kinase type II subunit gamma (Homo sapiens) (UniProt Q13555); assay: Inhibition of human CAMK2G at 100 nM using KKLNRTLSFAEPG as substrate by [gamma-33P]-ATP assay
# [24] = target: Inhibitor of nuclear factor kappa-B kinase subunit beta (Homo sapiens) (UniProt O14920); assay: Inhibition of human IKKbeta at 100 nM using KKKKERLLDDRHDSGLDSMKDEE as substrate by [gamma-33P]-ATP assay
# [25] = target: CDC7/DBF4 (Cell division cycle 7-related protein kinase/Activator of S phase kinase) (Homo sapiens) (UniProt Q9UBU7+O00311); assay: Inhibition of human CDC7/DBF4 at 100 nM using KTFCGTPEYLAPEVRREPRILSEEEQEMFRDFDYIADWC as substrate by [gamma-33P]-ATP assay; format: protein-complex assay
# [26] = target: AMP-activated protein kinase (AMPK) alpha-1/beta-1/gamma-1 (Homo sapiens) (UniProt P54619+Q9Y478+Q13131); assay: Inhibition of human AMPK (A1/B1/G1) at 100 nM using HMRSAMSGLHLVKRR as substrate by [gamma-33P]-ATP assay; format: protein-complex assay
# A549 = assay: Antitumor activity against human A549 cells xenografted in ig dosed BALB/c nude mouse assessed as tumor growth inhibition administered for 30 days measured every 3 days during compound dosing relative to control; format: functional, organism-based
# [27] = target: Serine/threonine-protein kinase Nek6 (Homo sapiens) (UniProt Q9HC98); assay: Inhibition of human NEK6 at 100 nM using casein as substrate by [gamma-33P]-ATP assay
# [28] = target: Ephrin type-A receptor 4 (Homo sapiens) (UniProt P54764); assay: Inhibition of human EPHA4 at 100 nM using poly[Glu:Tyr] (4:1) as substrate by [gamma-33P]-ATP assay
# Serine/threonine-protein kinase ULK3 (Homo sapiens), sequence (Q6PHR2 whole entry, the tested form may be a part): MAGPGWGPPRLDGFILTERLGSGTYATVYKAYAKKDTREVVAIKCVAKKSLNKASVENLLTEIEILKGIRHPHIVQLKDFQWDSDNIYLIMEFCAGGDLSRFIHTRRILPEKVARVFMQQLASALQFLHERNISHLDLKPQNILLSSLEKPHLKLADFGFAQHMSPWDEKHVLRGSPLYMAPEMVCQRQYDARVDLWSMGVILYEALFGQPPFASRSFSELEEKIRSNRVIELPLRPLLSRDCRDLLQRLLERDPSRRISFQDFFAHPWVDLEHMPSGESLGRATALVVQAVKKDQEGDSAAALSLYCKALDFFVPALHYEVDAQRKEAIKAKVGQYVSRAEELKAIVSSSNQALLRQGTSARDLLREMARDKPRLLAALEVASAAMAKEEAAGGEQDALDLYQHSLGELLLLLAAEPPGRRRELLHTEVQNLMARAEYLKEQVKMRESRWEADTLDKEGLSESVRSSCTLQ
# Testis-specific serine/threonine-protein kinase 3 (Homo sapiens), sequence (Q96PN8 whole entry): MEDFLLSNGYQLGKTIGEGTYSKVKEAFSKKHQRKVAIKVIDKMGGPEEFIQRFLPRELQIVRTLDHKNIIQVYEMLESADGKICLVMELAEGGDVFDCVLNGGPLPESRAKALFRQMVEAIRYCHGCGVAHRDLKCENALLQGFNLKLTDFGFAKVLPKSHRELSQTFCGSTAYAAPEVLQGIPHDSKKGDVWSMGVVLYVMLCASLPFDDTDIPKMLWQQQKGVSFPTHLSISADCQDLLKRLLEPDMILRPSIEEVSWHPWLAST
# Serine/threonine-protein kinase pim-2 (Homo sapiens), sequence (Q9P1W9 whole entry, looked up): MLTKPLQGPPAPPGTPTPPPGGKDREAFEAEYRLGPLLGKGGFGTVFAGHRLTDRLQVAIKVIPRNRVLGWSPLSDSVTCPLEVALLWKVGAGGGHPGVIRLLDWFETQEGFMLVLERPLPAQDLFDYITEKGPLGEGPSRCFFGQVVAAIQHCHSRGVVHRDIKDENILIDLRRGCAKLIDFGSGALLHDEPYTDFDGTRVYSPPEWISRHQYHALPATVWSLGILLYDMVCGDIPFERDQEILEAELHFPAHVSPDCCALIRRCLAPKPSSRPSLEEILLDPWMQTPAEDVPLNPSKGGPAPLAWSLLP
# Serine/threonine-protein kinase Nek1 (Homo sapiens), sequence (Q96PY6 whole entry): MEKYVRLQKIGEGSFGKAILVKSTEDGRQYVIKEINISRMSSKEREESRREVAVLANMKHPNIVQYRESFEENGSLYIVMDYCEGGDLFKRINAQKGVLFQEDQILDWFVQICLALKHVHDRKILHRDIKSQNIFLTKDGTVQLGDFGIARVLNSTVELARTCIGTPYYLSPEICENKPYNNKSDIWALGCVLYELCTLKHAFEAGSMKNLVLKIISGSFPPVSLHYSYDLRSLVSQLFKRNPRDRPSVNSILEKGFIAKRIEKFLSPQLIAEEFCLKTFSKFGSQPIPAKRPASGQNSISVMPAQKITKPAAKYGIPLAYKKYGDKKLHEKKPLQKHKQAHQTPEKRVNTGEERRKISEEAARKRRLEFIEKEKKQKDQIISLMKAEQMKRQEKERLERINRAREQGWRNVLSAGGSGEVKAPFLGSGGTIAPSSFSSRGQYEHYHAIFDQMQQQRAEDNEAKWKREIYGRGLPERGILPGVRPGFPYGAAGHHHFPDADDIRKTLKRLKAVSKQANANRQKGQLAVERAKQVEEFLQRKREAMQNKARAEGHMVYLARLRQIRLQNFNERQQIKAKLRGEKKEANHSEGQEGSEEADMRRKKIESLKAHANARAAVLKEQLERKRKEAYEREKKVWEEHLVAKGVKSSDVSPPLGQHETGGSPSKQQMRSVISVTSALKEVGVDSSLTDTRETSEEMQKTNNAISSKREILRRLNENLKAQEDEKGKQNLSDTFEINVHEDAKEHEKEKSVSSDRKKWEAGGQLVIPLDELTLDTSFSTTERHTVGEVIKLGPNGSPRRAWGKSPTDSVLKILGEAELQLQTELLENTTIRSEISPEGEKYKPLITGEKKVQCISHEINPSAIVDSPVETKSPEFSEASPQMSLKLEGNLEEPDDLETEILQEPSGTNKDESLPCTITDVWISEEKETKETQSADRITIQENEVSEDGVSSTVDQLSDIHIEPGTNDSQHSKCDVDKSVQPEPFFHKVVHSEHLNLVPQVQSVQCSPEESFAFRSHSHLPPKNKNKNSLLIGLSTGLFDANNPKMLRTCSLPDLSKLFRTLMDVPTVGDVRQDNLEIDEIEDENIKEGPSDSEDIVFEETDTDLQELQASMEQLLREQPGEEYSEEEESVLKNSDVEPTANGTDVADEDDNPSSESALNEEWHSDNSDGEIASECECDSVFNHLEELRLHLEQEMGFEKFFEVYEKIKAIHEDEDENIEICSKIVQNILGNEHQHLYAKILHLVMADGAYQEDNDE
# Inhibitor of nuclear factor kappa-B kinase subunit beta (Homo sapiens), sequence (O14920 whole entry): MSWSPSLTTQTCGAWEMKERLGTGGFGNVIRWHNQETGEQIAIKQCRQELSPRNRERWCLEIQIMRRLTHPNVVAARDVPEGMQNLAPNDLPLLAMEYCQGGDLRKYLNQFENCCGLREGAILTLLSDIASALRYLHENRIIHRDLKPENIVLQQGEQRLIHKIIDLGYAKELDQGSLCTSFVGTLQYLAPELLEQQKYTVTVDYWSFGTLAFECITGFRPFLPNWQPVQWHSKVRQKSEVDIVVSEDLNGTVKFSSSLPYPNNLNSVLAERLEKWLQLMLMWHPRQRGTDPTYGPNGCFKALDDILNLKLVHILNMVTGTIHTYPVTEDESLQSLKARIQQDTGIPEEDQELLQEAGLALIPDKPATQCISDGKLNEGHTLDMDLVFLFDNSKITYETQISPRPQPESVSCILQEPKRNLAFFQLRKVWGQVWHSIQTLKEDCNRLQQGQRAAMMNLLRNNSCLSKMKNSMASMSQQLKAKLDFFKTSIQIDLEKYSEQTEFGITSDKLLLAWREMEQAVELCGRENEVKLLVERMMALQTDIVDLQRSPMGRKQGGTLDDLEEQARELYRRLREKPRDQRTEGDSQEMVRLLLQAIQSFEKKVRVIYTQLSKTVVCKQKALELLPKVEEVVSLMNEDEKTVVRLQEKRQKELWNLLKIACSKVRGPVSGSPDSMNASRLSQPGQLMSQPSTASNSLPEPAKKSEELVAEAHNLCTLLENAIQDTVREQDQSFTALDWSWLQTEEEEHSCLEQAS
# Cyclin-dependent kinase 5/CDK5 activator 1 (Homo sapiens), sequence (Q00535 whole entry): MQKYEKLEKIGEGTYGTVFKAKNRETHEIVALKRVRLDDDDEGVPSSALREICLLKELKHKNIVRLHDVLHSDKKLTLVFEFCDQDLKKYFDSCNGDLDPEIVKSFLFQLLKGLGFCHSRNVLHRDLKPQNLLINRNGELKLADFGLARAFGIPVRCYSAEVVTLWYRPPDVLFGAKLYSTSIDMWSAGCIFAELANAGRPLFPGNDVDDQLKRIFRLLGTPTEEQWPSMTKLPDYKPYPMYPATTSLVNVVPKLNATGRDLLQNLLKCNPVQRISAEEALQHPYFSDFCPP
# Cyclin-dependent kinase 5/CDK5 activator 1 (Homo sapiens), sequence (Q15078 99-307 partner limits assumed): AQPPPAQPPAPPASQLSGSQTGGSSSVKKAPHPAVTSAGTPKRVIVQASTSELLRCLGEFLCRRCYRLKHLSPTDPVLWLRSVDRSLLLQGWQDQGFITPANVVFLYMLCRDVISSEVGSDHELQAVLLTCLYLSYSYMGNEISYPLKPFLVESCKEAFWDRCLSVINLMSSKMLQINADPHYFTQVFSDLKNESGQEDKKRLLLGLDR
# Serine/threonine-protein kinase 3 (Homo sapiens), sequence (Q13188 whole entry): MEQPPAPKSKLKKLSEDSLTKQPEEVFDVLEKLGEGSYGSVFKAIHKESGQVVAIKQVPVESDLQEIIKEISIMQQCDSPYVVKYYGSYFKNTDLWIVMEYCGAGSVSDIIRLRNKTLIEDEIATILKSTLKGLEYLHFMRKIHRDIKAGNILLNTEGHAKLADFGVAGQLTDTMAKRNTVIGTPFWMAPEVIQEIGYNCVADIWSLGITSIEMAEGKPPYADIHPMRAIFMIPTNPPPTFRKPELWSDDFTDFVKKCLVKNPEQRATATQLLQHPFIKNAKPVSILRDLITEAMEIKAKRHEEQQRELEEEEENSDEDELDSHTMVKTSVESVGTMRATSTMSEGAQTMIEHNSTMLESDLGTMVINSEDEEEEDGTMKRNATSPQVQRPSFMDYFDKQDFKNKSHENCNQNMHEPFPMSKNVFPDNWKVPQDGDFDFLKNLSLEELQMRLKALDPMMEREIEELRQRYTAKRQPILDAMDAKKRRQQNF
# Membrane-associated tyrosine- and threonine-specific cdc2-inhibitory kinase (Homo sapiens), sequence (Q99640 whole entry): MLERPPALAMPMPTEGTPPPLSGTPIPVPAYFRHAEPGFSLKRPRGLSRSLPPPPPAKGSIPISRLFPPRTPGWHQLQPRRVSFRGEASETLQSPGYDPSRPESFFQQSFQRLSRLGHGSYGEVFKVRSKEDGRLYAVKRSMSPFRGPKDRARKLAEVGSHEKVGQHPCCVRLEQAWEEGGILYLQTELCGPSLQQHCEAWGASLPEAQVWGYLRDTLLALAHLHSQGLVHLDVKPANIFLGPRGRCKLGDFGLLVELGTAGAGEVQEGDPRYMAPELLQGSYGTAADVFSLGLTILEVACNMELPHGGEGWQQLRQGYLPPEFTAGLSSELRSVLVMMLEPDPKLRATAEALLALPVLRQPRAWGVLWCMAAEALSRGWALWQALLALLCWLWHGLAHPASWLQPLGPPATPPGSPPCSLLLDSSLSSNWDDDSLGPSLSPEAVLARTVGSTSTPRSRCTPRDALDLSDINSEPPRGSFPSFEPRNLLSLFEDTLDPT
# Dual specificity mitogen-activated protein kinase kinase 2 (Homo sapiens), sequence (P36507 whole entry): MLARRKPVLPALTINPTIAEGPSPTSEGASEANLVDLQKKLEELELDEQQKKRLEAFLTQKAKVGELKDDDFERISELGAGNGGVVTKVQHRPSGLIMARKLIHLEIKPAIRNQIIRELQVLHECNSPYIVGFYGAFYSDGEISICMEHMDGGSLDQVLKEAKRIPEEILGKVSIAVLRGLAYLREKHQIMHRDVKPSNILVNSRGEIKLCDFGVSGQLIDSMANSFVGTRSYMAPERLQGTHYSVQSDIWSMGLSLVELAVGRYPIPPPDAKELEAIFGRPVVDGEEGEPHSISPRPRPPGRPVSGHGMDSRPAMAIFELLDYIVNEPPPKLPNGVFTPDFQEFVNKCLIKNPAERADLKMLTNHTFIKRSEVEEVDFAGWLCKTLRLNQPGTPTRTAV
smiles,measurement,setting,value
COc1ccc(N2C(=O)COc3ccc(-c4cnc(OC)c(NS(=O)(=O)c5ccc(F)cc5)c4)cc32)cc1,inhibition,[1],15.9%
same,inhibition,[2],13.9%
same,inhibition,[3],-1.63%
same,inhibition,[4],10.1%
same,inhibition,[5],-8.49%
same,inhibition,[6],0.23%
same,inhibition,[7],10.4%
same,inhibition,[8],14%
same,inhibition,Homo sapiens,-8.22%
same,AUC(0-inf),[9],4750 ng·h/mL
same,inhibition,[10],1.12%
same,inhibition,[11],5.64%
same,IC50,[12],9.2 nM
same,inhibition,[13],-6.07%
same,inhibition,[14],21.1%
same,inhibition,[15],-4.79%
same,inhibition,[16],-8.9%
same,inhibition,[17],-9.98%
same,inhibition,[18],19%
same,inhibition,[19],-8.01%
same,inhibition,[20],9.26%
same,inhibition,[21],3.96%
same,inhibition,[22],19.4%
same,inhibition,[23],2.55%
same,inhibition,[24],14.5%
same,inhibition,[25],8.12%
same,inhibition,[26],-4.91%
same,TGI,A549,Dose-dependent effect
same,inhibition,[27],-2.82%
same,inhibition,[28],6.1%
